Source: patent US12268672B2, “PPARδ activator” (JAPAN SCIENCE AND TECHNOLOGY AGENCY, priority 2018, dated 2025)
Where a name gives a salt, the structure may show the parent alone.

Key:
[1] = test system: angptl4, pdk4 and cpt1a genes; test: Quantitative PCR of genes whose expression is induced by PPARδ in C2C12 cells; type: cell-based, mouse; settings: 10 μM compound (A-4), 16 hours, relative to Hprt, n=3
Method: The effect of compound (A-4) on the expression of the gene whose expression is induced by PPARδ was investigated. Specifically, compound (A-4) was added to mouse skeletal muscle-derived myoblast cell line C2C12 cells, and the expression levels of the angptl4, pdk4 and the cpt1a genes, whose expression is induced by PPARδ (NPL 12), were measured. In addition, the Hprt gene was used as an endogenous control, and GW0742 was used as a positive control for PPARδ activation.
First, C2C12 cells were seeded on a 24-well plate (1×10^5 cells/well) and cultured until 80-90% confluent. DMEM containing 10% bovine serum and 1% antibiotic was used as the culture medium. After culturing for 36 hours, when the target cell density was reached, the entire medium was replaced with a serum-free DMEM medium containing each concentration of compound (A-4), and the cells were cultured for 16 hours (n=3). After culturing, the medium was discarded, a trizol reagent (manufactured by Invitrogen) for RNA extraction was directly added to each well to lyse the cells, and then the total RNA was extracted by ethanol precipitation. Using the obtained total RNA as a template, cDNA was synthesized using the reverse transcriptase “Superscript” (manufactured by […]).
Quantitative PCR was performed using the obtained cDNA as a template. The cDNA of the template, the primer that amplifies each gene to be measured, and the polymerase mix “ssoFast EvaGreen Supermix” (manufactured by Biorad) for quantitative PCR were mixed. Analysis was performed using a real-time PCR detection system “CFX connect (registered trademark)” (manufactured by Biorad).
From the obtained gene expression data, the expression level of each gene was divided by the expression level of the endogenous control gene to calculate the relative expression level.

C2C12 cells = test: Oxygen consumption rate (OCR) of C2C12 cells, extracellular flux analyzer; type: cell-based, mouse; settings: 100 μM metformin or 10 μM GW501516 for 24 hours; for OCR after FCCP addition: compared to DMSO-treated cells
Method: PPARδ is known to induce the expression of lipid metabolism-related genes and enhance β-oxidation of fatty acids, especially in skeletal muscle. The PPARδ agonist is expected to have an effect of increasing mitochondrial activity. […] Specifically, using C2C12 cells, the oxygen consumption rate (OCR: Oxygen Consumption Rate) of the cells was measured by a cell metabolism-measuring device (extracellular flux analyzer manufactured by Agilemt Technologies Inc.).
In this metabolic measurement, four inhibitors were used to force changes in intracellular metabolism (FIG. 14). First, oligomycin, which inhibits Complex V of the electron transport chain, was added. […] Next, the uncoupling agent FCCP (Carbonyl cyanide-p-trifluoromethoxyphenylhydrazone) was added. FCCP forcibly discharges hydrogen ions in the mitochondrial membrane to the outside of the membrane to eliminate the proton concentration gradient. Since a proton concentration gradient is required to produce ATP, the TCA cycle and electron transport chain are maximally activated when the gradient is forcibly eliminated by FCCP. This makes it possible to measure the maximum respiration rate of cells. It is known that OCR at this time is further increased in cells in which fatty acid oxidation is enhanced. Finally, rotenone and antimycin were added. Rotenone inhibits the electron transport chain complex I, and antimycin inhibits complex III.

[2] = test system: recruitment of PPARδ to PPRE; test: Chromatin immunoprecipitation of FLAG-PPARδ in differentiated C2C12-PPARδ cells; type: cell-based, mouse; settings: 100 μM metformin or 1 μM GW501516, day 6 of differentiation, IgG control set as 1
Method: First, C2C12-PPARδ cells, in which FLAG-tagged PPARδ (FLAG-PPARδ) was constitutively over-expressed in C2C12 cells were prepared. […] The treated cells were subjected to chromatin immunoprecipitation (Conventional ChIP) using an antibody that recognizes the FLAG tag.

PPARδ = test: Luciferase assay with GAL4-Ppard and MH2004 reporter in CV1 cells; type: cell-based; settings: for Light emission intensity (RLU) Average: 10 μM of each compound in DMSO, 12 hours; for Relative emission intensity Average: 10 μM of each compound, DMSO control defined as 1, n=3
Method: Among the compounds (1-1-4), the effects of compound (B-1), compound (B-2), and compound (B-3) on the transcriptional regulation of PPARδ were investigated. The effects on the transcriptional activity of PPARδ were measured by performing a luciferase assay on the cells treated with 10 μM of each compound dissolved in DMSO. Specifically, CV1 cells, which are cultured cells derived from African green monkey kidneys, were seeded on a 24-well plate (1×10^5 cells/well) and cultured until they became 70% confluent. DMEM containing 10% fetal bovine serum and 1% antibiotic was used as the culture medium. […] Then, the collected cells were lysed in a cell lysis buffer, suspended with a luminescent substrate (firefly luciferin), and the luminescence of the suspension was measured with a luminometer. In addition, the remaining suspension was mixed with Renilla luciferin and the amount of luminescence was measured with a luminometer. The result of the amount of light emitted by Renilla luciferin was used as the intrinsic control of gene transfer. Finally, the amount of luminescence of firefly luciferin was calculated as a light emission intensity (RLU) by dividing by the amount of luminescence of Renilla luciferin. The relative emission intensity of the reaction solution treated with each compound was determined as the transcriptional activation ability of PPARδ in each compound treatment, where the light emission intensity of the reaction solution to which an equal amount of DMSO was added (control) was defined as 1. The relative emission intensities were all 1.1 or more in the reaction solutions to which the compounds were added, and the transcriptional activity of PPARδ was increased. […] The effect of the obtained compound (A-4) on PPARδ activity was investigated. […] However, when the addition amount was 50 μM or more, the cells died and it was impossible to measure the transcription activity of PPARδ.

CV1 cells = test: Cell death observed in the CV1 luciferase assay; type: cell-based; settings: transcription activity impossible to measure
Method: Specifically, CV1 cells, which are cultured cells derived from African green monkey kidneys, were seeded on a 24-well plate (1×10^5 cells/well) and cultured until they became 70% confluent. DMEM containing 10% fetal bovine serum and 1% antibiotic was used as the culture medium. After reaching the desired cell density, the entire medium was removed, and a mixture obtained by mixing 2 μL of MH2004 (plasmid encoding a firefly luciferase gene having a Gal4 activation sequence upstream: 100 ng/μL), 1 μL of pRL-CMV (plasmid encoding the Renilla reniformis luciferase gene directly under the CMV promoter: 100 ng/μL), 2 μL of GAL4-Ppard (plasmid encoding Gal4-DNA binding region fused with PPARδ gene: 100 ng/μL) and 1.5 μL of PEI (polyethylenimine: manufactured by Invitrogen) with 45 μL culture medium “Opti-MEM” (registered trademark) (manufactured by Thermo Fisher Scientific) was added to each well, and the cells were cultured for about 36 hours.
The effect of the obtained compound (A-4) on PPARδ activity was investigated. Specifically, a luciferase assay was carried out in the same manner as in Example 8 except that compound (A-4) dissolved in DMSO (0.1%) was added to the reaction system as a test substance (n=3). […] However, when the addition amount was 50 μM or more, the cells died and it was impossible to measure the transcription activity of PPARδ.

human PPARδ = human PPARδ (Homo sapiens, UniProt Q03181); settings: in the presence of PPARδ complex (hPPARδ, PGC1α, RXRα)
human PPARδ, sequence (Q03181 whole entry): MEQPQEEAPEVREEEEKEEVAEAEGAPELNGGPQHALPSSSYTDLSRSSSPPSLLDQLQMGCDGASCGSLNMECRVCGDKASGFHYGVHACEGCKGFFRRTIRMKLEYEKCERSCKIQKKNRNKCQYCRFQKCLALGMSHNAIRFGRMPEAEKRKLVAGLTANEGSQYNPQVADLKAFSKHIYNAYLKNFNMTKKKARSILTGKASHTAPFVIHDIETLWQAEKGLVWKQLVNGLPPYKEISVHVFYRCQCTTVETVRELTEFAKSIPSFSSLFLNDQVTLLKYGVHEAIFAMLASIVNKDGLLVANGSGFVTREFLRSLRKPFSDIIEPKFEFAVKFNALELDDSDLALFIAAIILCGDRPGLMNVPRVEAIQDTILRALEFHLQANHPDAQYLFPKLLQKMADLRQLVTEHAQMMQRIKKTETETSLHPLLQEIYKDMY
human PPARδ, sequence (P19793 whole entry partner): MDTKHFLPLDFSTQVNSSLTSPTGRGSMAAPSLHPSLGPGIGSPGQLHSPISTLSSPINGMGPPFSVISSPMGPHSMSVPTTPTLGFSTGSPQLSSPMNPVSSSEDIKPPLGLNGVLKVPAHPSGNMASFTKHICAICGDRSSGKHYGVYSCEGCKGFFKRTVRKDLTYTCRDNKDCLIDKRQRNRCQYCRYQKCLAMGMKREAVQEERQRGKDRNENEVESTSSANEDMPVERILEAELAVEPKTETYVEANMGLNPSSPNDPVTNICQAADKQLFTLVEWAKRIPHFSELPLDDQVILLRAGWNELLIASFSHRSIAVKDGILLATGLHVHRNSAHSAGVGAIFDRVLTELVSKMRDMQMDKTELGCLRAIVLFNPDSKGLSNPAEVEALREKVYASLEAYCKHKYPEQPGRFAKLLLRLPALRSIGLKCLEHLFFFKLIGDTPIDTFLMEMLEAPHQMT
human PPARδ, sequence (Q9UBK2 whole entry partner): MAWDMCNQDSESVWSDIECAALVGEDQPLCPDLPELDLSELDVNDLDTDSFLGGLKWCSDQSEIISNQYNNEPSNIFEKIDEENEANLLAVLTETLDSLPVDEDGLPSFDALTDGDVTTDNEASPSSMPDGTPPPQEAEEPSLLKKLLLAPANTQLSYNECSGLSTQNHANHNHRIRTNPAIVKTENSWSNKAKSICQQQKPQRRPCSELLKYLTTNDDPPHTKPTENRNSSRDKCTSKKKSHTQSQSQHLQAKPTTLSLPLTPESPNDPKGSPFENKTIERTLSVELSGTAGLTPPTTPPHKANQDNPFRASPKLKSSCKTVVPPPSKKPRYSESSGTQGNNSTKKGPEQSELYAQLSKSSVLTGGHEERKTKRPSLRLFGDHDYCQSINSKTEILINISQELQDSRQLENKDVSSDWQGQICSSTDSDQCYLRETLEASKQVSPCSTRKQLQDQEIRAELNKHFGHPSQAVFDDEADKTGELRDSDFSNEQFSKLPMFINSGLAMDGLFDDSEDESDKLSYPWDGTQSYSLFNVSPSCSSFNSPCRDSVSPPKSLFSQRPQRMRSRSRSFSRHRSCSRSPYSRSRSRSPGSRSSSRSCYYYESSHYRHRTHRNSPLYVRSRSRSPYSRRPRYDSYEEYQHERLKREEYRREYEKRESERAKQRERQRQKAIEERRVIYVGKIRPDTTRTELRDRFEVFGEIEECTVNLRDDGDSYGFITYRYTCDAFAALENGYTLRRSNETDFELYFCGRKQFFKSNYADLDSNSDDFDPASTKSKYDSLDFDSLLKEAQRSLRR

C57BL/6 mice = test: Final exercise tolerance test on treadmill (NOS50); type: in vivo; settings: 25 mg/kg intraperitoneal
Method: For the metformin-non-administered group, an equal volume of PBS was intraperitoneally administered instead of the metformin/PBS solution.
The training for the final exercise tolerance test, in which the speed at start was 15 m/min and increased by 1 m/min every 10 minutes, and the running time after the speed reached 20 m/min was 10 minutes (1 hour in total), was performed 5 times a week for a total of 4 weeks using a treadmill device.
First, twenty 10-week-old male C57BL/6 mice were divided into 4 groups (5 mice per group). […] In addition, in order to average the motivation for exercise and exercise preference of individual mice in each group, the first exercise tolerance test was performed after training acclimatization to rank the mice, and the mice were divided into 4 groups so that the test results were even. Furthermore, in the test after the training period, the exercise tolerance was evaluated in such a manner that the running time was set as the time until the number of electrode contacts during the test reached 50 (number of shocks: NOS50), the speed at the start was set as 15 m/min and increased by 1 m/min every 10 minutes, and when the speed reached the maximum speed of 30 m/min, the running at the maximum speed was performed until NOS50 was reached.

endogenous PPARα = target: T1, endogenous PPARα (Homo sapiens, UniProt Q07869); test: Affinity purification using Met-beads and HepG2 cell extract, binding to PPARα; settings: HepG2 cell extract
T1 construct: endogenous in cells; host or cells: HepG2
T1 sequence (Q07869 1-468): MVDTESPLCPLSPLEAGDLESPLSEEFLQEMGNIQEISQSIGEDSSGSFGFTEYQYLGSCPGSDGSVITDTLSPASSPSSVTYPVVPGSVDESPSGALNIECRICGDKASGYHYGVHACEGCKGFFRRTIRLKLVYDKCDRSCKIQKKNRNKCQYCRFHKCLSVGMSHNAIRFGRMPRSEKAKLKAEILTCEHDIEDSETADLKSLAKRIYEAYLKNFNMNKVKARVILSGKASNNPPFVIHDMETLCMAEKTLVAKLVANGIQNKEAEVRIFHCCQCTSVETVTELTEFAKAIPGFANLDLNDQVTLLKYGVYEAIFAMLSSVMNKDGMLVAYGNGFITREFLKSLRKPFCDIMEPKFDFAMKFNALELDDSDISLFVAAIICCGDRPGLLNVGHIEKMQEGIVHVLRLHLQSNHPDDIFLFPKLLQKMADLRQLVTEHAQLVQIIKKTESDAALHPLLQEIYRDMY
Method: […] is a member of the nuclear receptor superfamily, with PPARα and […] as the other two family members. Affinity purification was performed using the Met-beads and HepG2 cell extract to verify the binding to endogenous PPARα.

endogenous AMPK = test: Affinity purification using Met-beads and HepG2 cell extract, binding to AMPK; design: species or system human; settings: HepG2 cell extract

Structure (SMILES) | expression level of the angptl4 gene [1] | expression level of the cpt1a gene [1] | expression level of the pdk4 gene [1] | base OCR before the inhibitor treatment (C2C12 cells) | OCR after FCCP addition (C2C12 cells) | Light emission intensity (RLU) Average (PPARδ; n=3) | Relative emission intensity Average (PPARδ) | also measured
Cc1cc(SCc2sc(-c3ccc(C(F)(F)F)c(F)c3)nc2C)ccc1OCC(=O)O [GW0742] | increased | increased | increased | – | – | – | – | –
Cc1cc(SCc2sc(-c3ccc(C(F)(F)F)cc3)nc2C)ccc1OCC(=O)O [GW501516] | – | – | – | did not change | increase in OCR | – | – | recruitment of PPARδ in the vicinity of PPRE on promoters of Angptl4, Pdk4, Plin2 and Ucp3 genes [2]: recruited
Cc1cc(SCc2sc(-c3ccc(C(F)(F)F)c(F)c3)nc2C)ccc1CNC(=N)N [compound (A-4), 1-{4-[({2-[3-fluoro-4-(trifluoromethyl)phenyl]4-methylthiazole-5-yl}methyl)thio]-2-methylbenzyl}guanidine] | increased | increased | increased | – | – | – | – | transcriptional activity of PPARδ (relative transcriptional activation ability) (PPARδ; depending on the amount added, DMSO (0.1%), n=3): tended to increase; addition amount at which the cells died (CV1 cells): ≥ 50 µM
N=C(N)NCc1ccc(COCc2ccccc2)cc1 [compound (B-1), N-({4-[(benzyloxy)methyl]phenyl}methyl) guanidine hydrobromide] | – | – | – | – | – | 250467 | 1.12 | –
COc1cc(CNC(=N)N)ccc1OCc1ccccc1 [compound (B-3)] | – | – | – | – | – | 457033 | 2.04 | –
CN(C)C(=N)N=C(N)N [metformin] | – | – | – | did not change | increase in OCR | – | – | activation ability compared with GW501516 (human PPARδ): about the same as that of GW501516; exercise tolerance, metformin administration without training (C57BL/6 mice; 4 weeks, compared with control group): did not show an improvement in exercise tolerance; exercise tolerance, training + metformin administration (C57BL/6 mice; training 5 times a week for 4 weeks, compared with training group): higher exercise tolerance than the training group; binding between metformin and PPARα (endogenous PPARα): not detected; binding between metformin and AMPK (endogenous AMPK): not detected
